According to PMC11286291, “A Light-Driven In Vitro Enzymatic Biosystem for the Synthesis of α-Farnesene from Methanol” (Biodesign Research, 2024):

Target: T1, AFS (Malus domestica, UniProt Q84LB2)
T1 construct: gene AFS1; N-terminal SUMO fusion, pET28a, E. coli BL21(DE3), Ni-NTA purified
T1 sequence (Q84LB2 1-576): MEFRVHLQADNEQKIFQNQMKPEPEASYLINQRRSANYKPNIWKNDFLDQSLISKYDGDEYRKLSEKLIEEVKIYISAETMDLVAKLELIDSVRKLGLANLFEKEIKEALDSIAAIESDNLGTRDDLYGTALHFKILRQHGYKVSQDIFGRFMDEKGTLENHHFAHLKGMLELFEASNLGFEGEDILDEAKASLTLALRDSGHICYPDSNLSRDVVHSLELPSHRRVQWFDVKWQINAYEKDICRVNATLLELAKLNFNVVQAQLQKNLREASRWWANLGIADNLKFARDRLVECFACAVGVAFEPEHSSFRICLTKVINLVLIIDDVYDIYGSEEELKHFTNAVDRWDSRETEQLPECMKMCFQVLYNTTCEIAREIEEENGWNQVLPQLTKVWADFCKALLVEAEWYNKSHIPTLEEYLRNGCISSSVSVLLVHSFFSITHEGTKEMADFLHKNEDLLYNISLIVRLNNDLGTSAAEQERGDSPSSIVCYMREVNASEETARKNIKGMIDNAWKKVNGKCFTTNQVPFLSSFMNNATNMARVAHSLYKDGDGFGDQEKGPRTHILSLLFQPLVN
Assay: GC-MS of alpha-farnesene; FPP formed in situ from IPP by IDI and ISPA
Format: biochemical
Conditions: 100 mM Hepes pH 7.5, 2 mM IPP, room temperature

CC(C)=CCC/C(C)=C/CC/C(C)=C/COP(=O)(O)OP(=O)(O)O [farnesyl pyrophosphate]
GC-MS of alpha-farnesene; FPP formed in situ from IPP by IDI and ISPA: the yield of AFS was greater than that of MdF, with an α-farnesene yield
